By MIC is commonly meant the lowest concentration that inhibits growth of the organism.

≈ marks a conversion by molar mass, not a printed value.

The results in this text go back to patent US20250090576A1, “METHODS FOR TREATING NONTUBERCULOUS MYCOBACTERIA DISEASES” (Microbion Corporation, priority 2022, published 2025).

What all share (format): cell-based
In one experiment the test system is M. abscessus MABS7. The experiment is described as follows: MIC (Table 8). Conditions: Mycobacteroides abscessus.
In a further experiment the test system is M. abscessus MABS9. The experiment in a line: MIC (Table 8). The conditions noted are these: Mycobacteroides abscessus.
The next experiment concerns M. abscessus MABS11. The experiment is described as follows: MIC (Table 8). Conditions: Mycobacteroides abscessus.
The subject of another experiment is M. abscessus MABS1. The experiment is described as follows: MIC (Table 8). The conditions noted are these: Mycobacteroides abscessus.
The subject of another experiment is M. abscessus MABS2. The experiment is described as follows: MIC (Table 8). The conditions noted are these: Mycobacteroides abscessus.
A further experiment has as its system M. abscessus MABS4. The experiment in a line: MIC (Table 8). The conditions noted are these: Mycobacteroides abscessus.
Experiment [1] has as its system M. abscessus MABS7 biofilm. The experiment in a line: MBEC assay (minimum biofilm eradication concentration). The conditions noted are these: 18 h challenge. The text has this:
(§1) In this study the MBEC assay was followed as described in the Innovotech Procedural Manual, version 2.1 with minor modifications to assess the antibiofilm activity of the antimicrobial compounds under investigation. The MBEC value refers to the Minimum Biofilm Eradication Concentration of each antimicrobial for each strain. The MBEC value is defined as the minimum antibiotic concentration where the optical density (OD) value at recovery is less than 10% of the control OD value and there is no growth observed with visual examination of the wells.
(§2) Step 1: Inoculation. For resuscitation, all strains were streaked on TSA plates, except for the mycobacteria which were streaked on 7H10 media, from the frozen stocks, and grew overnight at 37° C. (Table 6). From the plate, one colony was picked for inoculation in organism specific medium (OSM) and grown in a shaker incubator at 37° C. at 225 RPM until mid-log phase (OD 0.2-0.8). At mid log phase the culture was diluted in OSM medium (Table 6) to an OD of 0.05. 150 μL of it were aliquoted in each corresponding well in a 96-well MBEC plate (inoculation plate). Subsequently, the MBEC plates were incubated static at 37° C. for the appropriate time for each species (Table 7). During incubation, biofilm formed on the pegs.
(§3) Step 2: Challenge. Following incubation, the peg lid with the biofilm was washed twice in PBS and placed on a second 96-well plate with 200 μl of antibiotic dilutions (challenge plate). The challenge plate was then incubated at 37° C. for 18 h to allow exposure of the biofilm to antibiotics.
(§4) Step 3: Recovery. In the final step, the peg lid (with the biofilm after treatment with the antibiotics) was washed again twice in PBS and placed on a third 96-well plate (recovery plate) with 200 μl growth medium in each well to allow growth of any bacterial cells resistant to antibiotics at any concentration. The recovery of resistant cells was assessed by an end-point measurement of the optical density at 600 nm (OD600) for each well with a plate reader (FIG. 4).

Experiment [2] deals with M. abscessus MABS2 biofilm. The description is as above. Conditions: 18 h challenge.
Text: as §1, §2, §3, §4

Experiment [3] has as its system M. abscessus MABS1 biofilm. The experiment is described as above. The conditions noted are these: 18 h challenge.
Text: as §1, §2, §3, §4

Experiment [4] deals with M. abscessus MABS4 biofilm. The experiment is described as above. Conditions: 18 h challenge.
Text: as §1, §2, §3, §4

The test system of experiment [5] is M. abscessus MABS11 biofilm. The experiment is described as above. Conditions: 18 h challenge.
Text: as §1, §2, §3, §4

Experiment [6] concerns M. abscessus MABS9 biofilm. Described as above. The conditions noted are these: 18 h challenge.
Text: as §1, §2, §3, §4

Experiment [7] deals with M. avium strain 104 (MAH 104) in THP-1 macrophages. The experiment in a line: Mycobacterial survival (CFU) in infected THP-1 macrophages. Conditions: 4-day and 7-day, drugs at MIC. As to the method:
THP-1 macrophages were differentiated with 50 ng/ml PMA for 24 hours, followed by 24 hours in media prior to infection. Differentiated THP-1 macrophages were either infected with M. avium strains or M. abscessus strains for 1 hour with an multiplicity of infection (MOI) of 5 or uninfected. Cells were washed twice, followed by 1 hour of antibiotic treatment with 200 μg/ml of amikacin to remove extracellular bacteria. After the antibiotic step, cells were washed once more and BisEDT (BIZ) or amikacin was added once to selected wells (see in vitro doses below).
The treatments included: vehicle, amikacin, Soluble BisEDT (S Biz), Insoluble BisEDT (I Biz), and amikacin+BisEDT. The time points for sample preparation were 72 h for M. abscessus strains and 4- and 7-days post infection for M. avium strains. At the indicated timepoints cell media was removed and replaced with 400 ul of 0.1% triton x-100 in H2O for lysis. Wells were pipetted 25 times to disrupt cells then diluted and plated for CFU enumeration.

In experiment [8] the test system is M. abscessus biofilm (six clinical isolates). The experiment in a line: MBEC assay, summary over six clinical isolates. The conditions noted are these: at high concentrations (amikacin, clarithromycin: apart from MABS4).
Text: as §1, §2, §3
Step 3: Recovery. […] The recovery of resistant cells was assessed by an end-point measurement of the optical density at 600 nm (OD600) for each well with a plate reader (FIG. 4).
This is possibly, in part, due to the variable clumping of the cells observed in the biofilm biomass on the pegs. The clumping of the cells also impacted the OD readings. […] For replicate experiments with variable results, the final MBEC values were determined based on the higher MBEC concentration observed among the replicates.

For `C[C@@H](O)[C@H]1C(=O)N2C(C(=O)O)=C(SCCN=CN)C[C@H]12` [Imipenem], the MIC was 16 µg/mL (≈ 53.4 µM) against M. abscessus MABS7; 16 µg/mL (≈ 53.4 µM) against M. abscessus MABS9; 8 µg/mL (≈ 26.7 µM) against M. abscessus MABS11; 8 µg/mL (≈ 26.7 µM) with M. abscessus MABS1; 1 µg/mL (≈ 3.34 µM) with M. abscessus MABS2; 8 µg/mL (≈ 26.7 µM) with M. abscessus MABS4. Moreover, the MBEC in experiment [1] is >64 µg/mL; in experiment [2], >16 µg/mL; in experiment [3], >32 µg/mL; in experiment [4], >64 µg/mL; in experiment [5] it was >64 µg/mL; in experiment [6] it was >64 µg/mL.

`C1C[S][Bi]([S]CC[S][Bi]2[S]CC[S]2)[S]1` [BisEDT in DMSO]: in [7], the “mycobacterial survival (CFU, bacterial load) in THP-1 macrophages, in words” value is on record as “bacteriostatic effect”.

`CC[C@H]1OC(=O)[C@H](C)[C@@H](O[C@H]2C[C@@](C)(OC)[C@@H](O)[C@H](C)O2)[C@H](C)[C@@H](O[C@@H]2O[C@H](C)C[C@H](N(C)C)[C@H]2O)[C@](C)(OC)C[C@@H](C)C(=O)[C@H](C)[C@@H](O)[C@]1(C)O` [Clarithromycin]: the “biofilm susceptibility, in words” value in experiment [8] was “resistance”. Moreover, the MIC against M. abscessus MABS7 was determined as 0.5 µg/mL (≈ 0.668 µM); with M. abscessus MABS9, 0.25 µg/mL (≈ 0.334 µM); in the experiment with M. abscessus MABS11, 2 µg/mL (≈ 2.67 µM); against M. abscessus MABS1 it was 16 µg/mL (≈ 21.4 µM); against M. abscessus MABS2, 4 µg/mL (≈ 5.35 µM); in the experiment with M. abscessus MABS4, 0.125 µg/mL (≈ 0.167 µM). Also, the MBEC in [1] was >8 µg/mL; in [2], >32 µg/mL; in experiment [3] it was >32 µg/mL; in experiment [4], “<=4 μg/mL”; in [4] (listed as clarithromycin), 4 µg/mL; in experiment [5], “>=32 μg/mL”. Besides, the MBEC in experiment [6] is >8 µg/mL.

With `CO[C@@]1(NC(=O)Cc2cccs2)C(=O)N2C(C(=O)O)=C(COC(N)=O)CS[C@@H]21` [Cefoxitin], in experiment [8], the “biofilm susceptibility, in words” value is listed as “resistance”. Also, the MIC against M. abscessus MABS7 was found to be 16 µg/mL (≈ 37.4 µM); with M. abscessus MABS9, 32 µg/mL (≈ 74.9 µM); in the experiment with M. abscessus MABS11, 16 µg/mL (≈ 37.4 µM); against M. abscessus MABS1, 8 µg/mL (≈ 18.7 µM); against M. abscessus MABS2 it was 8 µg/mL (≈ 18.7 µM); with M. abscessus MABS4, 16 µg/mL (≈ 37.4 µM). In addition, the MBEC in [1] is >128 µg/mL; in experiment [2] it was >128 µg/mL; in experiment [3] it was >128 µg/mL; in experiment [4] it was >128 µg/mL; in experiment [5], >256 µg/mL; in [6] it was >256 µg/mL.
